Like-named read-outs stand apart in the source and are kept apart here.
Assays:
[1] = test system: healthy subjects
Experimental: The relationship between durlobactam plasma concentration and change‐from‐baseline QTcF (ΔQTcF) was investigated by a linear mixed‐effects modeling approach with a treatment effect‐specific intercept. […] The geometric mean of the individual Cmax values for subjects on the active dose were determined.

[2] = test system: healthy subjects; experiment: Cardiodynamic evaluation, 12-lead 24-h Holter ECG (QTcF, HR, categorical outliers); settings: for mean placebo-corrected ΔHR (ΔΔHR) / placebo-corrected change from baseline QTcF (ΔΔQTcF): durlobactam 4 g i.v.; for placebo-corrected change from baseline QTcF (ΔΔQTcF): mean ± spread (90% CI); for subjects with QTcF greater than 450 ms and less than or equal to 480 ms: single dose durlobactam 4 g i.v. or moxifloxacin 400 mg oral
Experimental: This was a partially double‐blind study in healthy adult subjects, which was conducted as a placebo‐ and active‐controlled, single‐infusion, three‐way crossover study. […] Study treatments were administered in the fasted state on day 1 of each treatment period. A 7 (±2) day washout period occurred between successive treatments. Subjects, investigator, and sponsor were blinded to durlobactam and placebo treatment assignment. Moxifloxacin was administered open‐label.
Variables associated with the primary ECG end point, placebo‐corrected change‐from‐baseline QTcF (ΔΔQTcF), were computed from means of measurements made on multiple replicate ECGs extracted at scheduled timepoints from Holter 12‐lead ECG data. Holter 12‐lead ECGs were read centrally (ERT, Rochester, NY). ECG end points included change‐from‐baseline HR, QTcF, PR, and QRS (ΔHR, ΔQTcF, ΔPR, and ΔQRS); placebo‐corrected change‐from‐baseline HR, PR, and QRS (ΔΔHR, ΔΔPR, and ΔΔQRS); categorical outliers for QTcF, HR, PR, and QRS; and frequency of treatment‐emergent changes of T‐wave morphology and U‐wave presence.
During each treatment period, 12‐lead, 24‐h Holter ECGs were continuously recorded and evaluated by a central ECG laboratory.

[3] = set-up: method as in PMID 32284380; settings: multiple dose regimen for 11 days, 1 g i.v. dose; cited from earlier work
[4] = single dose, normal renal function; cited from earlier work
[5] = test system: class A, C, and D β-lactamases; settings: cited from earlier work
[6] = patients with complicated urinary tract infection, durlobactam/sulbactam 1 g every 6 h for 7 days; cited from earlier work
[7] = Single dose study in subjects with varying degrees of renal impairment; type: in vivo, human; settings: severe renal impairment category (CLcr = 0-15 ml/min)
[8] = Plasma pharmacokinetics after single dose in healthy subjects (LC-MS/MS, noncompartmental analysis); type: in vivo, human
Experimental: Moxifloxacin was administered open‐label.
Plasma concentrations less than the lower limit of quantification were reported as 0. Plasma concentrations of durlobactam were determined by validated liquid chromatography with tandem mass spectrometry (LC‐MS/MS) assays operated in the negative ion mode (method number M8351072B) performed at Covance (Salt Lake City, UT). For durlobactam, the quantitation range was 5–5000 ng/ml. Moxifloxacin plasma concentrations were determined by LC‐MS/MS operated in the positive ion mode (method number 180M001.01) performed at Pharmaron ABS (Germantown, PA). The quantitation range was 1–1000 ng/ml.
PK parameters were determined with noncompartmental analysis using Phoenix WinNonlin (version 7.0 or higher), and PK parameters were compared with SAS version 9.3 or higher.

[9] = test system: healthy subjects; experiment: Safety and tolerability (adverse events); type: in vivo, human; settings: for serious AEs, discontinuation for AEs, deaths: all treatment groups; for incidence of at least one AE: single dose durlobactam 4 g i.v. or moxifloxacin 400 mg oral
Experimental: Safety was assessed from vital signs (systolic/diastolic blood pressure, HR, respiratory rate, and body temperature), physical examination, clinical laboratory tests (serum chemistry, hematology, and urinalysis), 12‐lead safety ECGs, and adverse events (AEs).

CC1=C[C@@H]2CN(C(=O)N2OS(=O)(=O)O)[C@@H]1C(N)=O [durlobactam]
plasma concentration up to which an effect on ΔΔQTcF exceeding 10 ms was excluded ([1]; durlobactam): ~190,000 ng/ml
effect on ECG parameters including QT interval prolongation (C-QT analysis) ([1]; durlobactam 4 g i.v. over 3 h): no significant effect
fold of excluded concentration (190,000 ng/ml) over therapeutic plasma concentrations ([1]; durlobactam, planned dose of 1 g): over 3 fold
treatment effect-specific intercept ([1]; durlobactam, not statistically significant): 0.6 ms
estimated slope of the plasma concentration-QTc relationship ([1]; durlobactam, not statistically significant, 90% CI -0.0000232 to 0.0000194): −0.0000019 ms per ng/ml
mean placebo-corrected ΔHR (ΔΔHR) ([2]; 3 h post-start-of-infusion): −2.6 bpm
mean placebo-corrected ΔHR (ΔΔHR) ([2]; 4 h post-start-of-infusion): −0.2 bpm
placebo-corrected change from baseline QTcF (ΔΔQTcF) ([2]; 6 h): 1.8 ms
placebo-corrected change from baseline QTcF (ΔΔQTcF) ([2]; 8 h): 1.8 ms
placebo-corrected change from baseline QTcF (ΔΔQTcF) ([2]; 24 h): 0.0 ms
effect on HR ([2]; durlobactam 4 g supratherapeutic dose): no clinically relevant effect on HR
subjects with QTcF greater than 450 ms and less than or equal to 480 ms [2]: 3.2%
Cmax [3]: 28.1 µg/mL
Cmax [4]: 27,000 ng/ml
β-lactamase inhibition [5]: inhibits class A, C, and D β‐lactamases
Cmax [6]: 39,900 ng/ml
estimated Cmax from linear regression of dose normalized Cmax versus creatinine clearance [7]: 60,000 ng/ml
Vz (volume of distribution) ([8]; durlobactam 4 g single 3-h i.v. infusion, n = 31, mean): 33.6 ± 5.2 L
Tmax ([8]; durlobactam 4 g single 3-h i.v. infusion, n = 31, mean, after start of infusion): 3.1 ± 0.32 h
Cmax ([8]; human, plasma, iv, 4 g, durlobactam 4 g single 3-h i.v. infusion, healthy subjects, n = 31, mean, read-out: Cmax): 108 µg/mL
Tmax ([8]; human, plasma, iv, 4 g, durlobactam 4 g single 3-h i.v. infusion, n = 31, mean, after start of infusion, read-out: Tmax): ~3 h
Vd ([8]; human, plasma, iv, 4 g, durlobactam 4 g single 3-h i.v. infusion, n = 31, mean, read-out: Vz (volume of distribution)): 33.6 L
Cmax ([8]; human, plasma, iv, 4 g, durlobactam 4 g single 3-h i.v. infusion, read-out: observed geometric mean Cmax): 106 µg/mL
AUC(0-inf) ([8]; human, plasma, iv, durlobactam 4 g single 3-h i.v. infusion, n = 31, mean): 413 µg·h/mL
AUC(0-t) ([8]; human, plasma, iv, durlobactam 4 g single 3-h i.v. infusion, n = 31, mean, read-out: AUC0-24): 413 µg·h/mL
clearance ([8]; human, plasma, iv, durlobactam 4 g single 3-h i.v. infusion, n = 31, mean, read-out: CL (total body clearance) (converted)): ~165 mL/min
half-life ([8]; human, plasma, iv, durlobactam 4 g single 3-h i.v. infusion, read-out: mean apparent half-life (converted)): 2.3 h
fold increase of mean Cmax (4 g dose) above maximum Cmax predicted with a 1 g dose ([8]; patients with normal renal function): ~3.2 fold
fold increase of mean Cmax (4 g dose) above maximum Cmax predicted with a 1 g dose ([8]; patients with severe renal impairment): ~1.5 fold
serious AEs, discontinuation for AEs, deaths [9]: No serious AEs, discontinuation for AEs, or deaths occurred
incidence of fatigue (AE) ([9]; durlobactam 4 g i.v., 2 subjects): 6.5%
incidence of at least one AE [9]: 19.4%

COc1c(N2C[C@@H]3CCCN[C@@H]3C2)c(F)cc2c(=O)c(C(=O)O)cn(C3CC3)c12 [moxifloxacin, reference compound]
slope of the concentration-QTc relationship ([1]; human, in vivo): 0.0065 ms per ng/ml
treatment effect-specific intercept ([1]; human, in vivo): 0.4 ms
subjects with QTcF greater than 450 ms and less than or equal to 480 ms [2]: 6.5%
subjects with ΔQTcF greater than 30 ms and less than or equal to 60 ms ([2]; single dose moxifloxacin 400 mg oral): 6.5%
Cmax ([8]; human, plasma, po, 400 mg, moxifloxacin single 400 mg oral dose, read-out: mean Cmax): 2.18 µg/mL
Tmax ([8]; human, plasma, po, 400 mg, moxifloxacin single 400 mg oral dose, read-out: time to peak plasma concentration): ~1.9 h
AUC(0-t) ([8]; human, plasma, moxifloxacin single 400 mg oral dose, read-out: mean AUC0-last): 22.6 µg·h/mL
geometric mean peak concentration ([8]; moxifloxacin single 400 mg oral dose): 2103.4 ng/mL
serious AEs, discontinuation for AEs, deaths [9]: No serious AEs, discontinuation for AEs, or deaths occurred
incidence of at least one AE [9]: 22.6%

Reference: paper PMC8301544, “A randomized, double‐blind, placebo‐ and positive‐controlled crossover study of the effects of durlobactam on cardiac repolarization in healthy subjects” (Clinical and Translational Science, 2021)
